Assay: Water sorption isotherm (dynamic vapor sorption)
Assay type: physicochemical
Conditions: 25° C., maintained at 90% relative humidity for 6 hours under humid nitrogen purge
Procedure: FIG. 11 is a water sorption isotherm showing the water-uptake of Form II of Coumpound 1 and amorphous Coumpound 1 when stored at 25° C. at different relative humidities.
As discussed above, the invention relates to crystalline forms of Coumpound 1 described herein as Form I, Form II, or Form III; and mixtures of at least two of Form I, Form II, or Form III (“the crystalline compounds of the invention”). WO2013017657 makes no mention of any crystalline form of Compound, any method for preparing a crystalline form of Coumpound 1, or any of the properties of the crystalline forms of Coumpound 1 described herein. The compounds of the invention have advantageous properties (e.g., improved stability and reproducibility) as compared to the amorphous form of Coumpound 1 described in Example 1 herein and WO2013017657. Improvements over the amorphous form include, for example, lower hygroscopicity and decreased tendency to convert to a different solid form. For example, the water-uptake of amorphous Coumpound 1 at 25° C. is 1.4% when maintained at 90% relative humidity for 6 hours under humid nitrogen purge. […]
Water sorption isotherms are determined using a dynamic vapor sorption system (Advantage, DVS, London, UK). […]

SMILES	water-uptake
CC(Oc1ccc(S(C)(=O)=O)cc1C(=O)N1CC2C[C@]2(c2cc(C(F)(F)F)on2)C1)C(F)(F)F (some centres unmarked) [amorphous Coumpound 1]	1.4%
CC(Oc1ccc(S(C)(=O)=O)cc1C(=O)N1CC2C[C@]2(c2cc(C(F)(F)F)on2)C1)C(F)(F)F (some centres unmarked) [Form II of Coumpound 1]	about 0.04%
